Source: patent publication US20180312542A1, “ENDOSOMAL ESCAPE PEPTIDES” (priority 2015, published 2018)

What was measured:
BSR.LNL.tdTomato cells [1] = assay: Primary screen for cytosolic delivery of Cre recombinase (tdTomato, fluorescence image analysis); type: cell-based, hamster; conditions: 250 nM protein, 4 h serum-free media, then 48 h; sortase-conjugated peptide or no peptide
Procedure: FIG. 2. Primary screen for cytosolic delivery of Cre recombinase in BSR.LNL.tdTomato cells. Initial screen of 20 peptide-(+36 GFP)-Cre conjugated proteins. Cytosolic Cre delivery results in recombination and tdTomato expression. The percentage of tdTomato positive cells was determined by fluorescence image analysis. […] Cells were treated with 250 nM protein for 4 hours in serum-free DMEM. Cells were washed and supplanted with full DMEM and incubated for 48 hours. Error bars represent the standard deviation of three independent biological replicates.
The ability of each peptide-(+36 GFP)-Cre recombinase fusion when added to culture media to effect recombination was assayed in BSR.LNL.tdTomato cells, a hamster kidney cell line derived from BHK-21 (FIG. 8). Because Cre recombinase must enter the cell, escape endosomes, enter the nucleus, and catalyze recombination to generate tdTomato fluorescence, this assay reflects the availability of active, non-endosomal recombinase enzyme that reaches the nucleus. […] See, e.g., Dijkstra at al. Biochimica et Biophysica Acta (BBA)-Molecular Cell Research 1984, 804, 58.
The reporter BSR.LNL.tdTomato cells were incubated with 250 nM of each peptide-(+36 GFP)-Cre protein in serum-free media.
BSR.LNL.tdTomato cells were plated at 10,000 cells per well in black 384-well plates (Aurora Biotechnologies). Cells were treated with Cre fusion proteins diluted in serum-free DMEM 24 hours after plating and incubated for 4 hours at 37° C. Following incubation, the cells were washed three times with PBS+20 U/mL heparin. The cells were incubated a further 48 h in serum-containing media. Cells were fixed in 3% paraformaldehyde and stained with Hoescht 33342 nuclear dye. Images were acquired on an ImageXpress Micro automated microscope (Molecular Devices) using a 4× objective (binning 2, gain 2), with laser- and image-based focusing (offset −130 μm, range ±50 μm, step 25 μm). Images were exposed for 10 ms in the DAPI channel (Hoechst) and 500 ms in the dsRed channel (tdTomato). Image analysis was performed using the cell-scoring module of MetaXpress software (Molecular Devices). All nuclei were detected with a minimum width of 1 pixel, maximum width of 3 pixels, and an intensity of 200 gray levels above background. Positive cells were evaluated for uniform signal in the dsRed channel (minimum width of 5 pixels, maximum width of 30 pixels, intensity >200 gray levels above background, 10 μm minimum stained area). In total, nine images were captured and analyzed per well, and 16 wells were treated with the same fusion protein. The primary screen was completed in biological triplicate.

BSR.LNL.tdTomato cells [2] = assay: Cre delivery assay of expressed fusion proteins (tdTomato, flow cytometry); type: cell-based, hamster
Procedure: FIGS. 3A-3B. Efficacy and toxicity of recombinant expression fusions of aurein 1.2 (“E”) and citropin 1.3 (“U”). […] The percentage of tdTomato positive cells was determined by flow cytometry. Protein fusions were delivered at 125 nM, 250 nM, 500 nM, and 1 μM. (FIG. 3B) Toxicity of aurein 1.2 and citropin 1.3 as determined by CellTiterGlo (Promega) assay. Protein fusions were delivered at 125 nM, 250 nM, 500 nM, and 1 μM. […] Cells were treated with 250 nM protein for 4 hours in serum-free media. Cells were washed and supplanted with full DMEM and incubated for 48 hours. Error bars represent the standard deviation of three independent biological replicates.
FIGS. 4A-4B. Activity and cytotoxicity of aurein 1.2 variants fused to +36 GFP-Cre. (FIG. 4A) The percentage of tdTomato positive cells was determined by flow cytometry. (FIG. 4B) Toxicity as determined by CellTiterGlo (Promega) assay. […] Cells were treated with 250 nM protein for 4 hours in serum-free DMEM. Cells were washed and supplanted with full DMEM and incubated for 48 hours.
Both aurein 1.2-+36 GFP-Cre and citropin 1.3-+36 GFP-Cre were cloned, expressed, and purified as fusion proteins.
To identify the residues involved in enhancing non-endosomal protein delivery, an alanine scan of the 13 amino acid positions of aurein 1.2 was performed by cloning, expressing, and purifying each alanine mutant of aurein 1.2-+36 GFP-Cre. The resulting fusion proteins were assayed in BSR.LNL.tdTomato reporter cells as described above (Table 2). […] In total, 19 mutants of aurein 1.2 were generated and tested using the Cre recombination assay.
Uptake and delivery assays for Cre fusion proteins were performed as previously described. Briefly, proteins were diluted in serum-free DMEM and incubated on the cells in 48-well plates for 4 hours at 37° C. Following incubation, the cells were washed three times with PBS+20 U/mL heparin. The cells were incubated a further 48 hours in serum-containing media prior to trypsinization and analysis by flow cytometry. All flow cytometry were carried out on a BD Fortessa flow cytometer (Becton-Dickinson) using 530/30 nm and 610/20 nm filter sets. Toxicity for aurein 1.2 and citropin 1.3 validation assays was determined using CellTiterGlo assay (Promega) in 96-well plates following manufacturer protocol. Toxicity for alanine scan mutational analysis was determined with LIVE/DEAD fixable far-red dead cell stain (Life Technologies) with 635 nm laser and 670/30 nm filter.

aurein 1.2-+36 GFP-Cre: fusion protein of aurein 1.2, +36 GFP and Cre recombinase, SEQ ID NO: 77
cells expressing tdTomato (recombined cells) (BSR.LNL.tdTomato cells [1]): 40%
recombination signal above that of +36 GFP-Cre (BSR.LNL.tdTomato cells [2]; 250 nM expressed fusion protein): 10.4 fold
recombination levels higher than that of +36 GFP-Cre alone (BSR.LNL.tdTomato cells [2]; 1 μM expressed fusion protein): 3.8 fold
